Experimental data: ChEMBL document CHEMBL1201862, “PubChem BioAssay data set” (2004)
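Following 48 hours of exposure in 96-well plates, responses at five concentrations were used to interpolate endpoints linearly. At the GI50, growth is halved.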 Activity calls are given as the source filed them. Rule as the data show it: active = GI50 up to about 1.1 µM and inactive = higher.

Columns and labels:
Assay in all cases: NCI anticancer screen, dose series, 48 h
HCT-116 = tested on: HCT-116
M14 = tested on: M14
UACC-257 = tested on: UACC-257
OVCAR-3 = tested on: OVCAR-3
NCI-H23 = tested on: NCI-H23
PC-3 = tested on: PC-3
786-0 = tested on: 786-0
KM12 = tested on: KM12
RPMI-8226 = tested on: RPMI-8226
LOX IMVI = tested on: LOX IMVI
A549 = tested on: A549
U-251 = tested on: U-251
SN12C = tested on: SN12C
K562 = tested on: K562
MDA-N = tested on: MDA-N
T47D = tested on: T47D
EKVX = tested on: EKVX
MOLT-4 = tested on: MOLT-4
HOP-92 = tested on: HOP-92
HT-29 = tested on: HT-29
NCI-H460 = tested on: NCI-H460
UACC-62 = tested on: UACC-62
RXF 393 = tested on: RXF 393
SF-268 = tested on: SF-268
SK-MEL-5 = tested on: SK-MEL-5
Hs-578T = tested on: Hs-578T
NCI-H522 = tested on: NCI-H522
TK-10 = tested on: TK-10
SNB-75 = tested on: SNB-75
NCI-H226 = tested on: NCI-H226
ACHN = tested on: ACHN
MCF7 = tested on: MCF7
NCI/ADR-RES = tested on: NCI/ADR-RES
HL-60 = tested on: HL-60
SNB-19 = tested on: SNB-19
HOP-62 = tested on: HOP-62
A498 = tested on: A498
UO-31 = tested on: UO-31
IGROV-1 = tested on: IGROV-1
MDA-MB-231 = tested on: MDA-MB-231
OVCAR-5 = tested on: OVCAR-5
DU-145 = tested on: DU-145
BT-549 = tested on: BT-549
SK-MEL-2 = tested on: SK-MEL-2
SK-MEL-28 = tested on: SK-MEL-28
HCC 2998 = tested on: HCC 2998
OVCAR-4 = tested on: OVCAR-4
CAKI-1 = tested on: CAKI-1
Malme-3M = tested on: Malme-3M
COLO 205 = tested on: COLO 205
MDA-MB-435 = tested on: MDA-MB-435
OVCAR-8 = tested on: OVCAR-8
SF-295 = tested on: SF-295
HCT-15 = tested on: HCT-15
SW-620 = tested on: SW-620
SK-OV-3 = tested on: SK-OV-3
CCRF-CEM = tested on: CCRF-CEM
SR = tested on: SR
SF-539 = tested on: SF-539

In the case of `OCCNc1ncnc2[nH]cnc12`, the GI50 (HCT-116) is reported as > 100 µM (inactive), the GI50 (M14) is reported as > 100 µM (inactive) and the GI50 (UACC-257) is reported as > 100 µM (inactive). For the same compound, the GI50 (OVCAR-3) was > 100 µM (inactive), the GI50 (NCI-H23) was > 100 µM (inactive) and the GI50 (PC-3) was > 100 µM (inactive). The GI50 (786-0) was > 100 µM (inactive), the GI50 (KM12) was > 100 µM (inactive) and the GI50 (RPMI-8226) was > 100 µM (inactive). For the same compound, the GI50 (LOX IMVI) was > 100 µM (inactive), the GI50 (A549) was > 100 µM (inactive) and the GI50 (U-251) was > 100 µM (inactive). For the same compound, the GI50 (SN12C) was > 100 µM (inactive), the GI50 (K562) was > 100 µM (inactive) and the GI50 (MDA-N) was > 100 µM (inactive). The GI50 (T47D) was > 100 µM (inactive), the GI50 (EKVX) was > 100 µM (inactive) and the GI50 (MOLT-4) was > 100 µM (inactive). For the same compound, the GI50 (HOP-92) was > 100 µM (inactive), the GI50 (HT-29) was > 100 µM (inactive) and the GI50 (NCI-H460) was > 100 µM (inactive). For the same compound, the GI50 (UACC-62) was > 100 µM (inactive), the GI50 (RXF 393) was > 100 µM (inactive) and the GI50 (SF-268) was > 100 µM (inactive). The GI50 (SK-MEL-5) was > 100 µM (inactive), the GI50 (Hs-578T) was > 100 µM (inactive) and the GI50 (NCI-H522) was > 100 µM (inactive). The GI50 (TK-10) was > 100 µM (inactive), the GI50 (SNB-75) was 0.296 µM (active) and the GI50 (NCI-H226) was > 100 µM (inactive). The GI50 (ACHN) was > 100 µM (inactive), the GI50 (MCF7) was > 100 µM (inactive) and the GI50 (NCI/ADR-RES) was > 100 µM (inactive). The GI50 (HL-60) was > 100 µM (inactive), the GI50 (SNB-19) was > 100 µM (inactive) and the GI50 (HOP-62) was > 100 µM (inactive). The GI50 (A498) was > 100 µM (inactive), the GI50 (UO-31) was > 100 µM (inactive) and the GI50 (IGROV-1) was > 100 µM (inactive). For the same compound, the GI50 (MDA-MB-231) was > 100 µM (inactive), the GI50 (OVCAR-5) was > 100 µM (inactive) and the GI50 (DU-145) was > 100 µM (inactive). For the same compound, the GI50 (BT-549) was > 100 µM (inactive), the GI50 (SK-MEL-2) was > 100 µM (inactive) and the GI50 (SK-MEL-28) was > 100 µM (inactive). For the same compound, the GI50 (HCC 2998) was > 100 µM (inactive), the GI50 (OVCAR-4) was > 100 µM (inactive) and the GI50 (CAKI-1) was > 100 µM (inactive). For the same compound, the GI50 (Malme-3M) was > 100 µM (inactive), the GI50 (COLO 205) was > 100 µM (inactive) and the GI50 (MDA-MB-435) was > 100 µM (inactive). For the same compound, the GI50 (OVCAR-8) was > 100 µM (inactive), the GI50 (SF-295) was > 100 µM (inactive) and the GI50 (HCT-15) was over 100 µM. The GI50 (SW-620) was > 100 µM (inactive) and the GI50 (SK-OV-3) was > 100 µM (inactive).

In the case of `CC1C(=NO)C(C)C(c2ccccc2)N(N=O)C1c1ccccc1` (configuration not stated), the GI50 (HCT-116) is reported as 17.5 µM (inactive), the GI50 (M14) is reported as 16 µM (inactive) and the GI50 (UACC-257) is reported as 23.4 µM (inactive). The GI50 (OVCAR-3) was 25.2 µM (inactive), the GI50 (NCI-H23) was 24.8 µM (inactive) and the GI50 (PC-3) was 25.4 µM (inactive). The GI50 (786-0) was 19.6 µM (inactive), the GI50 (KM12) was 16 µM (inactive) and the GI50 (LOX IMVI) was 15.9 µM (inactive). For the same compound, the GI50 (A549) was 17.8 µM (inactive), the GI50 (U-251) was 17.7 µM (inactive) and the GI50 (SN12C) was 15.5 µM (inactive). The GI50 (K562) was 32.7 µM (inactive), the GI50 (MDA-N) was 20.1 µM (inactive) and the GI50 (T47D) was 18.7 µM (inactive). For the same compound, the GI50 (EKVX) was 22.9 µM (inactive), the GI50 (MOLT-4) was 12.2 µM (inactive) and the GI50 (HOP-92) was 19.7 µM (inactive). For the same compound, the GI50 (HT-29) was 17.4 µM (inactive), the GI50 (NCI-H460) was 16 µM (inactive) and the GI50 (UACC-62) was 13.5 µM (inactive). The GI50 (RXF 393) was 17.1 µM (inactive), the GI50 (SF-268) was 15 µM (inactive) and the GI50 (SK-MEL-5) was 18.9 µM (inactive). For the same compound, the GI50 (Hs-578T) was 16.4 µM (inactive), the GI50 (NCI-H522) was 14.7 µM (inactive) and the GI50 (TK-10) was 24.1 µM (inactive). For the same compound, the GI50 (SNB-75) was 25.1 µM (inactive), the GI50 (CCRF-CEM) was 28.1 µM (inactive) and the GI50 (NCI-H226) was 24.7 µM (inactive). The GI50 (ACHN) was 20.2 µM (inactive), the GI50 (MCF7) was 37.9 µM (inactive) and the GI50 (NCI/ADR-RES) was 17.5 µM (inactive). For the same compound, the GI50 (HL-60) was 25 µM (inactive), the GI50 (SNB-19) was 18.3 µM (inactive) and the GI50 (HOP-62) was 19.1 µM (inactive). For the same compound, the GI50 (UO-31) was 13.3 µM (inactive), the GI50 (IGROV-1) was 19.6 µM (inactive) and the GI50 (SR) was 15.5 µM (inactive). For the same compound, the GI50 (MDA-MB-231) was 16.1 µM (inactive), the GI50 (DU-145) was 30.8 µM (inactive) and the GI50 (BT-549) was 22.9 µM (inactive). For the same compound, the GI50 (SF-539) was 13.1 µM (inactive), the GI50 (SK-MEL-2) was 18.7 µM (inactive) and the GI50 (SK-MEL-28) was 16.7 µM (inactive). The GI50 (HCC 2998) was 18.4 µM (inactive), the GI50 (OVCAR-4) was 19.6 µM (inactive) and the GI50 (CAKI-1) was > 10 µM (inactive). For the same compound, the GI50 (Malme-3M) was 17.4 µM (inactive), the GI50 (COLO 205) was 17.3 µM (inactive) and the GI50 (MDA-MB-435) was 21.3 µM (inactive). For the same compound, the GI50 (OVCAR-8) was 18 µM (inactive), the GI50 (SF-295) was 13.8 µM (inactive) and the GI50 (HCT-15) was 16.6 µM. For the same compound, the GI50 (SW-620) was 21.8 µM (inactive) and the GI50 (SK-OV-3) was 4.72 µM (inactive).
